Patent US8012944B2, “Method for treating cancer using IAP antisense oligomer and chemotherapeutic agent” (Pharmascience Inc., priority 2003, dated 2011)

Legend:
Assay type in all cases: cell-based, human
[1] = system: HIAP1 mRNA; assay: HIAP1 mRNA in SF295 cells, basal conditions (TaqMan); parameters: decrease of HIAP1 mRNA compared to mock or scrambled survivin control: concentration or dose not given beside the values; conditions: for HIAP1 mRNA levels (in words): SF295 cells (FIG. 21)
Experimental: RNA was extracted from cells lysed in RLT buffer (QIAGEN, Valencia, Calif.), and purified using QIAGEN RNeasy columns/kits. Real-time quantitative PCR was performed on a Perkin-Elmer ABI 7700 Prism PCR machine. RNA was reverse transcribed and amplified according to the TaqMan Universal PCR Master Mix protocol of PE Biosystems, using primers and probes designed to specifically recognize XIAP, HIAP1, survivin, or GAPDH. For human survivin, the forward primer was 5′-[…]-3′ (SEQ ID NO: 263), the reverse primer was 5′-GAAAGGAAAGCGCAACCG-3′ (SEQ ID NO: 264), and the probe was 5′-(FAM)[…](TAMRA)-3′ (SEQ ID NO: 265). For human HIAP1, the forward primer was 5′-[…]-3′ (SEQ ID NO: 266), the reverse primer was 5′-[…]-3′ (SEQ ID NO: 267), and the probe was 5′-(FAM)[…](TAMRA)-3′ (SEQ ID NO: 268). For human XIAP, the forward primer was 5′-[…]-3′ (SEQ ID NO: 269), the reverse primer was 5′-[…]-3′ (SEQ ID NO: 270), and the probe was 5′-(FAM)[…](TAMRA)-3′ (SEQ ID NO: 271). For human GAPDH, the forward primer was 5′-GAAGGTGAAGGTCGGAGTC-3′ (SEQ ID NO: 272), the reverse primer was 5′-GAAGATGGTGATGGGATTC-3′ (SEQ ID NO: 273), and the probe was 5′-(JOE)[…](TAMRA)-3′ (SEQ ID NO: 274). FAM is 6-carboxyfluoroscein, JOE is 6-carboxy-4,5-dichloro-2,7-dimethoxyfluoroscein, and TAMRA is 6-carboxy-N,N,N′,N′-tetramethylrhodamine. FAM and JOE are 5′ reporter dyes, while TAMRA is a 3′ quencher dye.
Relative quantification of gene expression was performed as described in the PE Biosystems manual using GAPDH as an internal standard. The comparative Ct (cycle threshold) method was used for relative quantitation of IAP mRNA levels compared to GAPDH mRNA levels. Briefly, real-time fluorescence measurements were taken at each PCR cycle and the threshold cycle (Ct) value for each sample was calculated by determining the point at which fluorescence exceeded a threshold limit of 30 times the baseline standard deviation. The average baseline value and the baseline SD are calculated starting from the third cycle baseline value and stopping at the baseline value three cycles before the signal starts to exponentially rise. The PCR primers and/or probes for the specific IAPs were designed to span at least one exon-intron boundary separated by 1 kb or more of genomic DNA, to reduce the possibility of amplifying and detecting genomic DNA contamination. The specificity of the signal, and possible contamination from DNA, were verified by treating some RNA samples with either DNase or RNase, prior to performing the reverse transcription and PCR reaction steps.
A library of 15 HIAP1 antisense nucleobase oligomers as oligonucleotides was screened for protein knock-down by western blot analysis and for RNA knock-down by TaqMan, using the primers and probes described in Example 3, above, under two different conditions. HIAP1 RNA levels may be detected using standard Northern blot analyses or RT-PCR techniques. The antisense oligonucleotides were administered to cells under basal conditions or under cycloheximide-induction conditions (24 hour treatment with sub-toxic doses). Cycloheximide (CHX) can lead to a 10- to 200-fold induction of HIAP1 mRNA depending on the cell line treated. […] This effect of CHX is via two distinct mechanisms of action. First, CHX activates NFkB, a known transcriptional inducer of HIAP1, by blocking the de novo synthesis of a labile protein, IkB, which is an inhibitor of NFkB. This effect is mimicked by puromycin, another protein synthesis inhibitor, and by TNF-alpha, which induces a signaling cascade leading to the phosphorylation, ubiquination, and degradation of IkB.
SF295 glioblastoma cells were transfected with lipofectin and oligonucleotide (scrambled survivin, no oligonucleotide, antisense APO 1 to APO 15) or left untreated. […]

[2] = system: SF295 cells; assay: Cytotoxicity of HIAP1 oligonucleotides measured by total protein; conditions: FIG. 23
Text: FIG. 23 is a graph showing the effects of HIAP1 oligonucleotides on cytotoxicity, as measured by total protein.

[3] = system: HIAP1 protein; assay: HIAP1 protein in cycloheximide-induced SF295 cells (western blot)
Text: HIAP1 was detected on a western immunoblot using an affinity-purified anti-rat HIAP1 rabbit polyclonal antibody as a primary antibody and was detected by ECL (Amersham) on X-ray film with a secondary horseradish-peroxidase-conjugated anti-rabbit Ig antibody and a chemiluminescent substrate. The anti-HIAP1 polyclonal antibody is raised against a GST-fusion of the rat HIAP1. This antibody cross-reacts with both human and murine HIAP1 and HIAP2.
(§1) The effect of HIAP1 antisense nucleobase oligomers on HIAP1 protein and mRNA expression was also examined in cells induced to express HIAP1. SF295 cells were transfected with oligonucleotides, or were mock transfected. The transfected cells were then treated with 10 μg/ml cycloheximide for 24 hours to induce 70 kDa HIAP1 mRNA and protein. Protein levels were measured by western blot analysis with an anti-HIAP1 polyclonal antibody, and normalized against actin protein in a re-probing of the same blots. The densitometric scan results were plotted against the mock results (set at 100%) in FIG. 22B. […] The transfection process itself (e.g., mock or scrambled survivin) induces HIAP1 protein compared to the untreated sample as shown on the western immunoblot.

[4] = system: survivin protein; assay: Survivin protein after APO 2 treatment; conditions: after oligo treatment
[5] = system: HIAP1 mRNA; assay: HIAP1 mRNA in SF295 cells under cycloheximide induction (TaqMan)
Experimental: as §1
Controls for this experiment were three oligonucleotides for APO 2: one scrambled sequence (same base composition but random order, 5′-AAGGGCGGCGGAGTGAGAC-3′; SEQ ID NO: 297), one reverse polarity (same base composition, same sequential order but in the opposite direction, 5′-AGAGGACGGAGTCGGAGGC-3′; SEQ ID NO: 298), and one mismatch sequence (containing four base mismatches out of 19 bases, 5′-CGGAGCGTGAGGATGGAGA-3′; SEQ ID NO: 299).

Row | Sequence | HIAP1 mRNA levels (in words) [1] | toxicity seen as general decrease in total protein [2] | activity in the HIAP1 protein and mRNA assays [3] | loss of survivin protein (specificity) [4] | effect on HIAP1 mRNA (and protein) under CHX induction (in words) [5] | decrease in HIAP1 mRNA compared to scrambled survivin control ([5]; cycloheximide induction conditions, 6 hours after transfection) [%] | decrease of HIAP1 mRNA compared to mock or scrambled survivin control ([1]; SF295 cells, six hours after transfection) [%]
1 | TCTCACAGACGTTGGGCTT (chemistry not given here) [APO 6] | stress-induced increase in HIAP1 mRNA | evidence of toxicity |  |  |  |  | 
2 | CGGAGGCTGAGGCAGGAGA (CGGAGGCNGAGGCAGGAGA; chemistry not given here) [APO 2] | did not cause a stress-induced increase in HIAP1 mRNA |  | high activity, or had significant activity in both the protein and mRNA assays | did not see any loss of survivin protein | greatest block of CHX-induced upregulation of HIAP1 mRNA and protein | 50 | ~50
